Experimental data reported in patent publication US20230312587A1, “PTERIDINONE COMPOUNDS AND USES THEREOF” (Vertex Pharmaceutical Incorporated, priority 2018, published 2023).
Read-outs that look alike come from different tables or passages of the source.

What was measured:
Hek293 empty vector = assay: In vitro cell viability (CellTiter-Glo), Hek293 empty vector; format: cell-based; conditions: read-out: Hek293 empty vector viability
Protocol: HEK293 (ATCC, catalog #CRL-1573) cells are plated in 10 cm dishes (Corning, product #430167) into 10 mL of complete DMEM cell culture media [DMEM (Life Technologies, product #11960-051) media supplemented with 10% FBS (Hyclone, catalog #SH30071.03), antimycotic/antibiotic (Life Technologies, product #15240-062), and Glutamax (Life Technologies, product #35050-061)] at 3×10^6 cells per dish. Cells are allowed to attach and grow overnight at 37° C. in humidified 5% CO2. Cells are co-transfected with pVSV-G, pCMV-Gag/Pol and pCLPCX_WFS1 using Fugene 6 (Promega, catalog #E2691) according to manufacturer's protocol. Separately, cells are co-transfected with pVSV-G, pCMV-Gag/Pol and pCLPCX to produce control retrovirus. Cell culture media containing retrovirus (viral supernatant) is collected at 48 and 72 hours following transfection, filtered through a 0.4 uM filter, and stored at −80° C.
HEK293 cells are plated in 6 well plates (Corning, product #3516) in 2 mL of complete DMEM cell culture media at 1×10^5 cells well and allowed to attach and grow overnight at 37° C. in humidified 5% CO2. The following day, the media is replaced with viral supernatant to which 10 ug/ml of Polybrene® (Santa Cruz Biotech, catalog #sc-134220) is added. Viral supernatant is replaced 24 hours later with complete DMEM media. Transduced cells are selected in complete DMEM cell culture media containing 1 microgram/mL of puromycin (Life Technologies, catalog #A1113803).
HEK293 cells containing empty pCLPCx vector (HEK293 empty), HEK293 cells stably over-expression WFS1 (HEK293 WFS1), HepG2, and HepG2 cells where WFS1 was depleted via CRISPR/Cas9 (HepG2 WFS1 KO) cells were plated into 96-well black plates (Corning, product #3904) in 100 microliters of complete DMEM cell culture media [DMEM (Life Technologies, product #11960-051) media supplemented with 10% FBS (Hyclone, catalog #SH30071.03), antimycotic/antibiotic (Life Technologies, product #15240-062), and Glutamax (Life Technologies, product #35050-061)] at 1,000 (HEK293) or 5,000 (HepG2) cells per well. Cells were allowed to attach and grow overnight, after which compounds are added at various concentrations. Cell viability was assessed 96 hrs after compound addition with CellTiter-Glo reagent (Promega, catalog #G7570) according to manufacturer's protocol and measurement on a Pherastar luminescence plate reader (BMG Labtech).
The IC50s for the viability of both the Hek293 empty vector and WFS1 over-expressing cells are summarized in Table 47: A<0.06 μM; 0.06 μM≤B<0.6 μM; 0.6 μM≤C<3.0 μM; D≥3.0 μM.

HepG2 XBP1(u)-Luc cells = assay: HepG2 XBP1 reporter assay; format: cell-based; conditions: 6 h
Protocol: HepG2 hepatoma cells were transduced with a retrovirus encoding the cDNA for unspliced (u) XBP1, which contains a non-processed intron, fused to the cDNA for firefly luciferase. Upon induction of ER stress, the non-processed intron of XBP1(u) is spliced out by active IRE1alpha endonuclease. The resulting spliced (s) XBP1 is now in frame with luciferase which causes the production of active luciferase protein, resulting in bioluminescence
HepG2 XBP1(u)-Luc cells were plated […] Cultured cells with a stably transfected reporter construct were plated at approximately 30,000 cells per well into 96 well multi-well plates for twenty four hours. The testing compounds were then added to the wells in 3-fold serial dilutions using a twenty seven micromolar top concentration. A series of control wells for each cell type received only compound solvent. Six hours after the addition of compound, reporter activity for luciferase was assayed, by addition of the SteadyGlo luminescence reagent (Promega). The reporter luminescence activity was measured using Pherastar plate reader (BMG Labtech). Readings was normalized to DMSO only treated cells, and normalized activities were then used in the IC50 calculations. The HepG2 XBP1 reporter assay data are summarized in Table 47: A<0.6 μM; 0.6 μM≤B<2.0 μM; 2.0 μM≤C<10.0 μM; D≥10.0 μM.

| IC50 (HepG2 XBP1(u)-Luc cells; Homo sapiens) [nM] | IC50 (HepG2 XBP1(u)-Luc cells) [nM] | Structure (SMILES) | IC50 (Hek293 empty vector; Homo sapiens, HEK293) [nM] | IC50 (Hek293 empty vector; Hek293 empty vector) [nM] |
| --- | --- | --- | --- | --- |
| < 600 | – | Cc1nc(NCc2cnn(Cc3cccc(C(C)C)c3)c2)nc2c1NC(=O)[C@H](C)N2C [Compound 80, (7S)-2-(((1-(3-isopropylbenzyl)-1H-pyrazol-4-yl)methyl)amino)-4,7,8-trimethyl-7,8-dihydropteridin-6(5H)-one] | ≥ 3000 | – |
| 2000 to 10000 | – | Cc1ccc(Cn2cc(CNc3nc(C)c4c(n3)N(C)[C@@H](C)C(=O)N4)cn2)cn1 [Compound 173, (7S)-4,7,8-trimethyl-2-(((1-((6-methylpyridin-3-yl)methyl)-1H-pyrazol-4-yl)methyl)amino)-7,8-dihydropteridin-6(5H)-one] | ≥ 3000 | – |
| – | – | Cc1nc(NCc2cnn(Cc3ccc(F)nc3)c2)nc2c1NC(=O)[C@H](C)N2C [Compound 77] | ≥ 3000 | – |
| < 600 | – | Cc1nc(NCc2cnn(Cc3cc(C(F)(F)F)nn3C)c2)nc2c1NC(=O)[C@H](C(C)C)N2C [Compound 397, (7S)-7-Isopropyl-4,8-dimethyl-2-(((1-((1-methyl-3-(trifluoromethyl)-1H-pyrazol-5-yl)methyl)-1H-pyrazol-4-yl)methyl)amino)-7,8-dihydropteridin-6(5H)-one] | ≥ 3000 | – |
| < 600 | – | CC[C@H]1C(=O)Nc2c(C)nc(NCc3cnn(Cc4ccc(C(F)(F)F)nc4)c3)nc2N1C [Compound 186, (7S)-7-ethyl-4,8-dimethyl-2-(((1-((6-(trifluoromethyl)pyridin-3-yl)methyl)-1H-pyrazol-4-yl)methyl)amino)-7,8-dihydropteridin-6(5H)-one] | ≥ 3000 | – |
| < 600 | – | Cc1nc(NCc2cnn([C@@H]3C[C@@H]3c3ccc(F)cc3)c2)nc2c1NC(=O)[C@H](C)N2C [Compound 154, (7S)-2-(((1-((1R,2R)-2-(4-fluorophenyl)cyclopropyl)-1H-pyrazol-4-yl)methyl)amino)-4,7,8-trimethyl-7,8-dihydropteridin-6(5H)-one] | ≥ 3000 | – |
| < 600 | – | Cc1nc(NCc2cnn(Cc3cc(F)c(F)c(F)c3)c2)nc2c1NC(=O)[C@H](C)N2C [Compound 122, (7S)-4,7,8-trimethyl-2-(((1-(3,4,5-trifluorobenzyl)-1H-pyrazol-4-yl)methyl)amino)-7,8-dihydropteridin-6(5H)-one] | ≥ 3000 | – |
| 600 to 2000 | – | Cc1nc(NCc2cnn([C@H]3CCN(C4CCC(F)(F)CC4)C3)c2)nc2c1NC(=O)[C@H](C)N2C [Compound 142, (7S)-2-(((1-((S)-1-(4,4-difluorocyclohexyl)pyrrolidin-3-yl)-1H-pyrazol-4-yl)methyl)amino)-4,7,8-trimethyl-7,8-dihydropteridin-6(5H)-one] | ≥ 3000 | – |
| < 600 | – | Cc1nc(NCc2cnn(Cc3ccc(C(F)(F)F)nc3)c2)nc2c1NC(=O)[C@H](C1CC1)N2C [Compound 386, (7S)-7-Cyclopropyl-4,8-dimethyl-2-(((1-((6-(trifluoromethyl)pyridin-3-yl)methyl)-1H-pyrazol-4-yl)methyl)amino)-7,8-dihydropteridin-6(5H)-one] | ≥ 3000 | – |
| < 600 | – | Cc1nc(N[C@H]2C[C@H](Sc3cc(F)c(F)c(F)c3)C2)nc2c1NC(=O)[C@H](C)N2C [Compound 329, (7S)-4,7,8-trimethyl-2-((trans-3-((3,4,5-trifluorophenyl)thio)-cyclobutyl)amino)-7,8-dihydropteridin-6(5H)-one] | ≥ 3000 | – |
| 600 to 2000 | – | Cc1nc(N[C@H]2CC[C@H](Oc3ccc(C(F)(F)F)nc3)C2)nc2c1NC(=O)[C@H](C)N2C (single isomer, unassigned) [Compound 376] | ≥ 3000 | – |
| < 600 | – | Cc1nc(N[C@H]2C[C@@H](Sc3cc(F)c(F)c(F)c3)C2)nc2c1NC(=O)[C@H](C)N2C [Compound 332, (7S)-4,7,8-trimethyl-2-((cis-3-((3,4,5-trifluorophenyl)thio)cyclobutyl)amino)-7,8-dihydropteridin-6(5H)-one] | ≥ 3000 | – |
| 2000 to 10000 | – | Cc1nc(NCc2ccc(-n3cc(C(F)(F)F)cn3)nc2)nc2c1NC(=O)[C@H](C)N2C [Compound 143, (S)-4,7,8-trimethyl-2-(((6-(4-(trifluoromethyl)-1H-pyrazol-1-yl)pyridin-3-yl)methyl)amino)-7,8-dihydropteridin-6(5H)-one] | ≥ 3000 | – |
| 600 to 2000 | – | Cc1cc(F)ncc1Cn1cc(CNc2nc(C)c3c(n2)N(C)[C@@H](C)C(=O)N3)cn1 [Compound 94, (7S)-2-(((1-((6-fluoro-4-methylpyridin-3-yl)methyl)-1H-pyrazol-4-yl)methyl)amino)-4,7,8-trimethyl-7,8-dihydropteridin-6(5H)-one] | ≥ 3000 | – |
| < 600 | – | Cc1nc(NCc2cnn(Cc3cc(C(F)(F)F)nn3C)c2)nc2c1NC(=O)[C@H](C)N2C [Compound 160, (7S)-4,7,8-trimethyl-2-(((1-((1-methyl-3-(trifluoromethyl)-1H-pyrazol-5-yl)methyl)-1H-pyrazol-4-yl)methyl)amino)-7,8-dihydropteridin-6(5H)-one] | ≥ 3000 | – |
| – | 600 to 2000 | Cc1nc(N[C@H]2CC[C@H](Oc3ccc(C(F)(F)F)nc3)C2)nc2c1NC(=O)[C@H](C)N2C (single isomer, unassigned) [Compound 377] | – | ≥ 3000 |
| 600 to 2000 | – | COc1cc(F)ccc1Cn1cc(CNc2nc(C)c3c(n2)N(C)[C@@H](C)C(=O)N3)cn1 [Compound 83, (7S)-2-(((1-(4-fluoro-2-methoxybenzyl)-1H-pyrazol-4-yl)methyl)amino)-4,7,8-trimethyl-7,8-dihydropteridin-6(5H)-one] | ≥ 3000 | – |
| < 600 | – | Cc1nc(NCc2cnn(Cc3ccnc(C(F)(F)F)c3)c2)nc2c1NC(=O)[C@H](C)N2C [Compound 207, (7S)-4,7,8-trimethyl-2-(((1-((2-(trifluoromethyl)pyridin-4-yl)methyl)-1H-pyrazol-4-yl)methyl)amino)-7,8-dihydropteridin-6(5H)-one] | ≥ 3000 | – |
| – | – | Cc1nc(N[C@H]2C[C@H](Oc3cc(F)c(F)c(F)c3)C2)nc2c1NC(=O)[C@H](C)N2C [Compound 246, (7S)-4,7,8-trimethyl-2-((trans-3-(3,4,5-trifluorophenoxy)cyclobutyl)amino)-7,8-dihydropteridin-6(5H)-one] | ≥ 3000 | – |
| < 600 | – | Cc1nc(C(F)(F)F)ccc1Cn1cc(CNc2nc(C)c3c(n2)N(C)[C@@H](C)C(=O)N3)cn1 [Compound 188, (S)-4,7,8-trimethyl-2-(((1-((2-methyl-6-(trifluoromethyl)pyridin-3-yl)methyl)-1H-pyrazol-4-yl)methyl)amino)-7,8-dihydropteridin-6(5H)-one] | ≥ 3000 | – |
| – | – | COc1c(F)cc(Cn2cc(CNc3nc(C)c4c(n3)N(C)[C@@H](C)C(=O)N4)cn2)cc1F [Compound 46, (7S)-2-(((1-(3,5-difluoro-4-methoxybenzyl)-1H-pyrazol-4-yl)methyl)amino)-4,7,8-trimethyl-7,8-dihydropteridin-6(5H)-one] | ≥ 3000 | – |
| – | – | Cc1nc(N[C@H]2C[C@H](Oc3ccc(F)cc3)C2)nc2c1N(C)C(=O)[C@H](C)N2C [Compound 250, (7S)-2-((trans-3-(4-fluorophenoxy)cyclobutyl)amino)-4,5,7,8-tetramethyl-7,8-dihydropteridin-6(5H)-one] | ≥ 3000 | – |
